Assay results reported in ChEMBL document CHEMBL4052691, “Discovery of BMS-961955, an allosteric inhibitor of the hepatitis C virus NS5B polymerase” (Bioorg Med Chem Lett, 2017).

What was measured:
[1] = Volume of distribution at steady state in cynomolgus monkey at 1 mg/kg, iv; assay type: ADME, organism-based, Macaca fascicularis; details: in vivo, read-out: Vdss
[2] = AUC (0 to 24 hrs) in dog at 3 mg/kg, po; assay type: ADME, organism-based, Canis lupus familiaris; parameters: time < 24 hr, dose 3 mg/kg, route oral; details: in vivo
[3] = Oral bioavailability in cynomolgus monkey at 3 mg/kg; assay type: ADME, organism-based, Macaca fascicularis; details: in vivo
[4] = AUC (0 to 24 hrs) in cynomolgus monkey at 3 mg/kg, […]; assay type: ADME, organism-based, Macaca fascicularis; parameters: dose 3 mg/kg, time < 24 hr; details: in vivo
[5] = AUC (0 to 24 hrs) in rat at 10 mg/kg, iv; assay type: ADME, organism-based; parameters: dose 10 mg/kg, time < 24 hr, route intravenous; details: in vivo
[6] = Oral bioavailability rat at 10 mg/kg; assay type: ADME, organism-based; details: in vivo
[7] = Volume of distribution at steady state in dog at 1 mg/kg, iv; assay type: ADME, organism-based, Canis lupus familiaris; details: in vivo, read-out: Vdss
[8] = AUC (0 to 24 hrs) in rat at 5 mg/kg, iv; assay type: ADME, organism-based; parameters: time < 24 hr, dose 5 mg/kg, route intravenous; details: in vivo
[9] = Oral bioavailability in dog at 3 mg/kg; assay type: ADME, organism-based, Canis lupus familiaris; details: in vivo
[10] = Apparent permeability of the compound at pH 5.5 by PAMPA; assay type: physicochemical
[11] = AUC (0 to 24 hrs) in cynomolgus monkey at 1 mg/kg, iv; assay type: ADME, organism-based, Macaca fascicularis; parameters: dose 1 mg/kg, time < 24 hr, route intravenous; details: in vivo
[12] = Apparent permeability of the compound at pH 7.4 by PAMPA; assay type: physicochemical
[13] = Volume of distribution at steady state in rat at 5 mg/kg, iv; assay type: ADME, organism-based; details: in vivo, read-out: Vdss
[14] = AUC (0 to 24 hrs) in dog at 1 mg/kg, iv; assay type: ADME, organism-based, Canis lupus familiaris; parameters: time < 24 hr, dose 1 mg/kg, route intravenous; details: in vivo
[15] = (§1) AUC (0 to 6 hrs) in rat at 5 mg/kg, iv; assay type: ADME, organism-based; parameters: dose 5 mg/kg, time < 6 hr, route intravenous; details: in vivo
[16] = system: Rattus norvegicus; experiment: as §1; assay type: ADME, organism-based; parameters: dose 5 mg/kg, time < 6 hr, route intravenous; details: in vivo, 6 h

SMILES	bioavailability [6] [%]	AUC(0-t) at 24 h [8] [µM·h]	Papp [10] [×10⁻⁶ cm/s]	Papp [12] [×10⁻⁶ cm/s]	also measured
CN1CC2CCC(C1)N2C(=O)[C@]12C[C@H]1c1cc(F)ccc1-c1c(C3CCCCC3)c3ccc(C(=O)NS(=O)(=O)C4(C)CC4)cc3n1C2	52	12.3 to 12.4	52.3	59	Vd [1]: 3.1 L/kg; AUC(0-t) at 24 h [2]: 62.1 µM·h; bioavailability [3]: 48%; AUC(0-t) at 24 h [4]: 3.1 µM·h; AUC(0-t) at 24 h [5]: 12.4 µM·h; Vd [7]: 0.6 L/kg; bioavailability [9]: 84%; AUC(0-t) at 24 h [11]: 2.3 µM·h; Vd [13]: 3.9 L/kg; AUC(0-t) at 24 h [14]: 25.7 µM·h
CN1CC2CCC(C1)N2C(=O)[C@]12C[C@H]1c1cc(F)ccc1-c1c(C3CCCCC3)c3ccc(C(=O)NS(=O)(=O)C(C)(C)C)cc3n1C2	8	–	13.5	23.8	AUC(0-t) at 6 h [15]: 1.3 µM·h
CN1CC2CCC(C1)N2C(=O)[C@]12C[C@H]1c1cc(F)ccc1-c1c(C3CCCCC3)c3ccc(C(=O)NS(=O)(=O)C4CC4)cc3n1C2	23	1.51	–	–	–
CN1CC2CCC(C1)N2C(=O)[C@]12C[C@H]1c1cc(F)ccc1-c1c(C3CCCCC3)c3ccc(C(=O)NS(=O)(=O)N4CCC4)cc3n1C2	19	–	–	–	AUC [16]: 0.5 µM·h
CCS(=O)(=O)NC(=O)c1ccc2c(C3CCCCC3)c3n(c2c1)C[C@@]1(C(=O)N2C4CCC2CN(C)C4)C[C@H]1c1cc(F)ccc1-3	13.6	0.857	–	–	–
